Test results taken from ChEMBL document CHEMBL1201862, “PubChem BioAssay data set” (2004).
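All cell lines were grown in 96-well plates and treated with compound for 48 hours. GI50 = concentration required for 50% inhibition of growth.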 Activity calls are given as the source filed them. Rule as the data show it: active = GI50 up to about 1.1 µM and inactive = higher.

Assays:
Assay in all cases: inhibition of tumour cell growth, NCI panel, 48 h
COLO 205 = system: COLO 205
K562 = system: K562
NCI-H23 = system: NCI-H23
ACHN = system: ACHN
OVCAR-3 = system: OVCAR-3
HCT-116 = system: HCT-116
NCI-H226 = system: NCI-H226
MDA-MB-231 = system: MDA-MB-231
T47D = system: T47D
LOX IMVI = system: LOX IMVI
UO-31 = system: UO-31
OVCAR-8 = system: OVCAR-8
RXF 393 = system: RXF 393
HOP-92 = system: HOP-92
SNB-75 = system: SNB-75
SK-OV-3 = system: SK-OV-3
HL-60 = system: HL-60
CCRF-CEM = system: CCRF-CEM
MOLT-4 = system: MOLT-4
SR = system: SR

Measured: GI50

O=C1CSC2(CCN(CCCN3c4ccccc4Sc4ccc(Cl)cc43)CC2)N1
inactive: COLO 205 10 µM | K562 3.79 µM | NCI-H23 9.46 µM | ACHN 11.6 µM | OVCAR-3 10.4 µM | HCT-116 6.14 µM | NCI-H226 17.6 µM | MDA-MB-231 7.06 µM | T47D 3.57 µM | LOX IMVI 3.88 µM | UO-31 6.75 µM | OVCAR-8 11.3 µM | RXF 393 3.07 µM | HOP-92 5.55 µM | SNB-75 7.43 µM | SK-OV-3 9.77 µM

Cc1ccc(C2=Nc3c(c(C)nn3-c3ccccc3)N=C(C(=O)O)C2)cc1
inactive: COLO 205 > 10 µM | K562 > 10 µM | NCI-H23 > 10 µM | ACHN > 10 µM | OVCAR-3 > 10 µM | HCT-116 > 10 µM | HL-60 > 10 µM | NCI-H226 > 10 µM | MDA-MB-231 > 10 µM | T47D > 10 µM | LOX IMVI > 10 µM | UO-31 > 10 µM | OVCAR-8 > 10 µM | CCRF-CEM > 10 µM | RXF 393 > 10 µM | MOLT-4 > 10 µM | HOP-92 > 10 µM | SNB-75 > 10 µM | SK-OV-3 > 10 µM

ON=C(CC(O)(C(F)(F)Cl)C(F)(F)Cl)CC(O)(C(F)(F)Cl)C(F)(F)Cl
inactive: COLO 205 5.04 µM | K562 > 10 µM | NCI-H23 2.56 µM | SR 4.58 µM | ACHN 3.66 µM | OVCAR-3 3.23 µM | HCT-116 3.29 µM | HL-60 4.1 µM | NCI-H226 4.07 µM | T47D 3.37 µM | LOX IMVI 5.26 µM | UO-31 3.33 µM | OVCAR-8 6.9 µM | CCRF-CEM 5.56 µM | RXF 393 2.7 µM | MOLT-4 4.83 µM | SNB-75 6.61 µM | SK-OV-3 2.99 µM

O=[N+]([O-])c1ccccc1S(=O)(=O)c1cc(Cl)cc2c1NCCC2
inactive: COLO 205 33.6 µM | K562 37.5 µM | SR 42.8 µM | ACHN 56.6 µM | OVCAR-3 > 100 µM | HCT-116 41.7 µM | HL-60 31.3 µM | NCI-H226 45.5 µM | MDA-MB-231 34.1 µM | LOX IMVI 43.9 µM | UO-31 50.2 µM | OVCAR-8 > 100 µM | CCRF-CEM 36.1 µM | RXF 393 63 µM | MOLT-4 31.8 µM | HOP-92 91.2 µM | SNB-75 43.4 µM | SK-OV-3 > 100 µM

CC(C)(/C=N/O)/[N+]([O-])=C/c1ccccc1
inactive: COLO 205 > 100 µM | NCI-H23 > 100 µM | ACHN > 100 µM | OVCAR-3 > 100 µM | HCT-116 > 100 µM | NCI-H226 > 100 µM | MDA-MB-231 > 100 µM | T47D > 100 µM | LOX IMVI > 100 µM | UO-31 > 100 µM | OVCAR-8 > 100 µM | RXF 393 > 100 µM | MOLT-4 > 100 µM | HOP-92 > 100 µM | SNB-75 > 100 µM | SK-OV-3 > 100 µM

CC1(C)OC2CN(C(=O)OCc3ccccc3)C(CO)C2O1 (configuration not stated)
inactive: COLO 205 > 100 µM | K562 > 100 µM | NCI-H23 > 100 µM | ACHN > 100 µM | OVCAR-3 > 100 µM | HCT-116 > 100 µM | HL-60 > 100 µM | NCI-H226 > 100 µM | MDA-MB-231 > 100 µM | T47D > 100 µM | LOX IMVI > 100 µM | UO-31 > 100 µM | OVCAR-8 > 100 µM | RXF 393 > 100 µM | MOLT-4 > 100 µM | HOP-92 > 100 µM | SNB-75 > 100 µM | SK-OV-3 > 100 µM

SCCCSCCSCCCSCCS
inactive: COLO 205 > 100 µM | K562 97.9 µM | NCI-H23 85.9 µM | SR 55.7 µM | OVCAR-3 > 100 µM | HCT-116 > 100 µM | HL-60 13.3 µM | MDA-MB-231 70.6 µM | T47D > 100 µM | LOX IMVI > 100 µM | UO-31 80.9 µM | OVCAR-8 > 100 µM | CCRF-CEM 31.7 µM | MOLT-4 33.2 µM | SNB-75 45.6 µM | SK-OV-3 > 100 µM

O=S(=O)(O)c1ccc(/N=N/c2ccc(/N=N/c3c(O)ccc4ccccc34)c(S(=O)(=O)O)c2)cc1
inactive: COLO 205 > 100 µM | K562 > 100 µM | NCI-H23 > 100 µM | SR > 100 µM | ACHN > 100 µM | OVCAR-3 > 100 µM | HCT-116 > 100 µM | HL-60 > 100 µM | NCI-H226 > 100 µM | MDA-MB-231 > 100 µM | UO-31 > 100 µM | OVCAR-8 > 100 µM | CCRF-CEM > 100 µM | RXF 393 > 100 µM | MOLT-4 > 100 µM | HOP-92 > 100 µM | SNB-75 62.1 µM | SK-OV-3 > 100 µM

O=C(c1ccc(Cl)cc1)N(C(=S)OC12CC3CC(CC(C3)C1)C2)c1ccccc1
inactive: COLO 205 16.8 µM | K562 29.8 µM | NCI-H23 35.6 µM | ACHN 34.8 µM | OVCAR-3 44.6 µM | HCT-116 33.5 µM | HL-60 17 µM | NCI-H226 30.9 µM | MDA-MB-231 29.4 µM | T47D 54.5 µM | UO-31 27 µM | OVCAR-8 39.2 µM | CCRF-CEM 16.3 µM | RXF 393 99.8 µM | MOLT-4 26.9 µM | HOP-92 34 µM | SNB-75 42.9 µM | SK-OV-3 53.1 µM

Oc1[nH]c(Nc2ccc(Cl)c(C(F)(F)F)c2)nc2ncnc1-2
inactive: COLO 205 27.2 µM | K562 39.6 µM | NCI-H23 73.8 µM | ACHN 44.5 µM | OVCAR-3 36.6 µM | HCT-116 34.7 µM | NCI-H226 > 100 µM | MDA-MB-231 42.2 µM | T47D 24.5 µM | LOX IMVI 25.5 µM | UO-31 > 100 µM | OVCAR-8 31.8 µM | CCRF-CEM 21 µM | RXF 393 26.1 µM | MOLT-4 23.2 µM | HOP-92 58.5 µM | SNB-75 33.9 µM | SK-OV-3 > 100 µM

CNc1c2c(c3nc4ccccc4c4c3c1N=C4)NCCC2=O [PLAKINIDINE A]
inactive: COLO 205 2.82 µM | K562 2.43 µM | NCI-H23 7.13 µM | ACHN 2.07 µM | OVCAR-3 8.57 µM | HCT-116 1.77 µM | NCI-H226 7.43 µM | MDA-MB-231 3.86 µM | T47D 3.78 µM | UO-31 3.56 µM | OVCAR-8 2.38 µM | CCRF-CEM 1.9 µM | RXF 393 5.41 µM | MOLT-4 1.32 µM | HOP-92 4.51 µM | SNB-75 2.87 µM | SK-OV-3 8.04 µM
